Reference: patent US7176224B2, “Oxazolyl-aryloxyacetic acid derivatives and their use as PPAR agonists” (Eli Lilly and Company, priority 2000, dated 2007)

Columns and labels:
Hu apoAI transgenic mice = assay: Evaluation of triglyceride and cholesterol levels in hu apoAI transgenic mice; type: in vivo; settings: 30 mg/kg oral gavage daily for 7 days; serum HDLc FPLC area under the curve, over mice receiving vehicle
Method: Five to six week old male mice, transgenic for human apoAI [C57B1/6-tgn(apoa1) 1rub, Jackson Laboratory, Bar Harbor, Me.] were housed five per cage (10″×20″8″ with aspen chip bedding) with food (Purina 5001) and water available at all times. After an acclimation period of 2 weeks, animals were individually identified by ear notches, weighed, and assigned to groups based on body weight. Beginning the following morning, mice were dosed daily by oral gavage for 7 days using a 20 gauge, 1½″ curved disposable feeding needle (Popper & Sons). Treatments were test compounds (30 mg/kg), a positive control (fenofibrate, 100 mg/kg) or vehicle [1% carboxymethylcellulose (w/v)/0.25% Tween80 (w/v); 0.2 ml/mouse]. Prior to termination on day 7, mice were weighed and dosed. Three hours after dosing, animals were anesthetized by inhalation of isoflurane (2–4%; Abbott Laboratories, Chicago, Ill.) and blood obtained via cardiac puncture (0.7–1.0 ml). Whole blood was transferred to serum separator tubes (Vacutainer SST), chilled on ice, and permitted to clot. Serum was obtained after centrifugation at 4° C. and frozen until analysis for triglycerides, total cholesterol, compound levels, and serum lipoprotein profile by fast protein liquid chromatography (FPLC) coupled to an inline detection system. After sacrifice by cervical dislocation, the liver, heart and epididymal fat pads were excised and weighed.
The animals dosed with vehicle had average triglycerides values of 60–80 mg/dl, which were reduced by the positive control fenofibrate (33–58 mg/dl with a mean reduction of 37%). The animals dosed with vehicle had average total serum cholesterol values of 140–180 mg/dl, which were increased by fenofibrate (190–280 mg/dl, with a mean elevation of 41%). […] increased the amount of HDLc (68–96 v-sec with a mean percent increase of 48%).
Glucose was measured colorimetrically using commercially purchased reagents (Sigma #315-500). According to the manufacturers, the procedures were modified from published work (McGowan, M. W., Artiss, J. D., Strandbergh, D. R. & Zak, B. Clin Chem, 20:470–5 (1974) and Keston, A. Specific colorimetric enzymatic analytical reagents for glucose. Abstract of papers 129th Meeting ACS, 31C (1956).); and depend on the release of a mole of hydrogen peroxide for each mole of analyte, coupled with a color reaction first described by Trinder (Trinder, P. Determination of glucose in blood using glucose oxidase with an alternative oxygen acceptor. Ann Clin Biochem, 6:24 (1969)). The absorbance of the dye produced is linearly related to the analyte in the sample. The assays were further modified in our laboratory for use in a 96 well format. Standards (Sigma #339-11, Sigma #16-11, and Sigma #CC0534 for glucose, triglycerides and total cholesterol, respectively), quality control plasma (Sigma # A2034), and samples (2 or 5 μl/well) were measured in duplicate using 200 μl of reagent. An additional aliquot of sample, pipetted to a third well and diluted in 200 μl water, provided a blank for each specimen. Plates were incubated at room temperature (18, 15, and 10 minutes for glucose, triglycerides and total cholesterol, respectively) on a plate shaker (DPC Micormix 5) and absorbance read at 500 nm (glucose and total cholesterol) or 540 nm (triglycerides) on a plate reader (Wallac Victor 1420). Sample absorbances were compared to a standard curve (100–800, 10–500, and 100–400 mg/dl for glucose, triglycerides and total cholesterol, respectively). Values for the quality control sample were always within the expected range and the coefficient of variation for samples was below 10%. All samples from an experiment were assayed at the same time to minimize inter-assay variability.
Serum lipoproteins were separated and cholesterol quantitated with an in-line detection system. Sample was applied to a Superose® 6 HR 10/30 size exclusion column (Amersham Pharmacia Biotech) and eluted with phosphate buffered saline-EDTA at 0.5 ml/min. […]

db/db mice = assay: Evaluation of glucose levels in db/db mice; type: in vivo; settings: 30 mg/kg oral gavage daily for 7 days; 100% = glucose not differing from lean values
Method: Five week old male diabetic (db/db) mice [C57BlKs/j-m +/+ Lepr(db), Jackson Laboratory, Bar Harbor, Me.] or lean littermates (DB/?) were housed 6 per cage (10″20″8″ with aspen chip bedding) with food (Purina 5015) and water available at all times. After an acclimation period of 2 weeks, animals were individually identified by ear notches, weighed, and bled via the tail vein for determination of initial glucose levels. Blood was collected (100 μl) from unfasted animals by wrapping each mouse in a towel, cutting the tip of the tail with a scalpel, and milking blood from the tail into a heparinized capillary tube (Fisher) balanced on the edge of the bench. Sample was discharged into a heparinized microtainer with gel separator (VWR) and retained on ice. Plasma was obtained after centrifugation at 4° C. and glucose measured immediately. Remaining plasma was frozen until the completion of the experiment, when glucose and triglycerides were assayed in all samples. […]
Glucose was measured colorimetrically using commercially purchased reagents (Sigma #315-500). […] The absorbance of the dye produced is linearly related to the analyte in the sample. […] Standards (Sigma #339-11, Sigma #16-11, and Sigma #CC0534 for glucose, triglycerides and total cholesterol, respectively), quality control plasma (Sigma # A2034), and samples (2 or 5 μl/well) were measured in duplicate using 200 μl of reagent. […]

`Cc1oc(-c2cccc(-c3cccs3)c2)nc1CCOc1ccc(CC(C)(Oc2ccccc2)C(=O)O)cc1` (centres unmarked) [Example 5, 2-Methyl-3-(4-{2-[5-methyl-2-(3-thiophen-2-ylphenyl)oxazol-4-yl]ethoxy}phenyl)-2-phenoxypropionic acid] was tested. Which “% HDLc Increase” value (Hu apoAI transgenic mice) did it give?
The value was 94.5%.

What about the “Glucose Normalisation” value (db/db mice) of the same compound?
The value was 71%.
